# Data: patent EP2601963B1, “N-ISOVALEROYL-L-GLUTAMYL-L-TRYPTOPHAN AS AN AGENT INHIBITING THE FORMATION OF ULCERS IN THE STOMACH AND THE DUODENUM” (Obshestvo S Ogranichennoj Otvetstvennostju "CytoNIR", priority 2010, dated 2015)
# Assays:
# Assay type in all cases: in vivo, male Wistar rats
# [1] = tested on: alkaline phosphatase (AP); experiment: Indomethacin-induced ulcer model, therapeutic: alkaline phosphatase activity in blood serum; conditions: treatment 5 days after Indomethacin
# Experimental: (§1) Alanine aminotransferase (ALT) and alkaline phosphatase (AP) activity in blood serum was determined with "Vital Development Corporation" kits.
# (§2) 2 ml/kg of the ulcerogenic dose of indomethacin equal to 30 mg/kg was administered intraperitoneally. The treatment started 24 hrs. post indomethacin administration and continued for 5 days. The animals in the experimental groups received N-isovaleroyl-L-glutamyl-L-tryptophan or the comparator drug Sucralfate, and the control group received distilled water.
# [2] = tested on: malondialdehyde (MDA); experiment: Indomethacin-induced ulcer model, preventive: malondialdehyde in blood serum
# Experimental: (§3) Intensity of the free radical oxidation was evaluated by the malondialdehyde (MDA) accumulation in blood serum [R.A. Temirbulatov, Ye.I. Seleznev Method for Increasing the Intensity of Free Radical Oxidation in Lipid-Containing Blood Components and its Diagnostic Significance // Labor. Delo, 1981, # 4, p.p. 209 - 211]. The state of the antioxidant systems was evaluated by the superoxide dismutase (SODM) activity [S. Chevari , I. Chaba, Y. Sekei. The Role of Superoxide Dismutase in Cellular Oxidative Processes and Method of its Determination in Biological Materials // Labor. Delo, 1985, # 11, p.p. 678 - 681].
# (§4) The efficacy of the course of preventive treatment with the claimed composition was evaluated 24 hrs. post indomethacin administration. The study was conducted as in Example 1.
# [3] = Indomethacin intoxication, therapeutic: changes in body weight; conditions: Indomethacin 30 mg/kg, Before Indomethacin = 100
# Experimental: as §2
# Some loss of weight of the intact animals could be contributed to the 18-hr fasting. […]
# [4] = tested on: superoxide dismutase (SODM); experiment: Indomethacin-induced ulcer model, therapeutic: superoxide dismutase activity in blood serum; conditions: treatment 5 days after Indomethacin
# Experimental: as §3, §2
# [5] = Indomethacin-induced ulcer model, therapeutic: survival; conditions: Indomethacin 30 mg/kg
# Experimental: as §2
# On the 5th day, only 7 out of 10 animals in the control group survived, while in the group receiving VGT 9 out of 10 survived.
# [6] = tested on: Alanine aminotransferase (ALT); experiment: Indomethacin-induced ulcer model, therapeutic: alanine aminotransferase activity in blood serum; conditions: treatment 5 days after Indomethacin
# Experimental: as §1, §2
# [7] = Indomethacin-induced ulcer model, therapeutic: weight of organs; conditions: treatment 5 days after Indomethacin
# Experimental: (§5) Intensity of changes caused by stressors in the internal organs of the animals was evaluated by the relative weight changes of the adrenal glands, thymus, and spleen calculated as a ratio of the organ's weight to the body weight of the animal multiplied by 100.
# as §2
# [8] = tested on: Alanine aminotransferase (ALT); experiment: Indomethacin-induced ulcer model, preventive: alanine aminotransferase activity in blood serum
# Experimental: as §1, §4
# [9] = tested on: malondialdehyde (MDA); experiment: Water-immersion stress model: malondialdehyde in blood serum
# Experimental: as §3
# [10] = tested on: malondialdehyde (MDA); experiment: Indomethacin-induced ulcer model, therapeutic: malondialdehyde in blood serum; conditions: for MDA: treatment 5 days after Indomethacin
# Experimental: as §3, §2
# [11] = tested on: superoxide dismutase (SODM); experiment: Water-immersion stress model: superoxide dismutase activity in blood serum
# Experimental: as §3
# [12] = tested on: alkaline phosphatase (AP); experiment: Indomethacin-induced ulcer model, preventive: alkaline phosphatase activity in blood serum
# Experimental: as §1, §4
# [13] = tested on: alkaline phosphatase (AP); experiment: Water-immersion stress model: alkaline phosphatase activity in blood serum
# Experimental: as §1
# [14] = tested on: Alanine aminotransferase (ALT); experiment: Water-immersion stress model: alanine aminotransferase activity in blood serum
# Experimental: as §1
# [15] = tested on: superoxide dismutase (SODM); experiment: Indomethacin-induced ulcer model, preventive: superoxide dismutase activity in blood serum
# Experimental: as §3, §4
# [16] = Indomethacin-induced ulcer model, preventive: weight of organs
# Experimental: as §5, §4
# [17] = Water-immersion stress model: weight of organs
# Experimental: as §5
# [18] = blood serum, 0.1 mkg/kg + Indomethacin 20 mg/kg, preventive
# [19] = blood serum, 10 mkg/kg + Indomethacin 20 mg/kg, preventive
# [20] = preventive administration, indomethacin 20 mg/kg
# [21] = 0.1 mkg/kg + Indomethacin 20 mg/kg
# [22] = 10 mkg/kg + Indomethacin 20 mg/kg
# [23] = 200 mg/kg + Indomethacin 20 mg/kg
substance,measurement,setting,value
N-isovaleroyl-L-glutamyl-L-tryptophan [VGT preparation],AP,[1]; 0.1 mkg/kg,1357 ± 58 nM/c*L
same,AP,[1]; 10.0 mkg/kg,1368 ± 148 nM/c*L
same,MDA,[2]; [18],0.124 ± 0.009 OD532
same,MDA,[2]; [19],0.158 ± 0.030 OD532
same,reduced the final LP-MDA product concentration compared to control animals,[2]; [20],14%
same,Body weight In 5 days,[3]; 0.1 mkg/kg,84.4 ± 2.3
same,Body weight In 5 days,[3]; 10.0 mkg/kg,84.1 ± 3.0
same,SODM,[4]; 0.1 mkg/kg,3.1 ± 0.11 conv. units/ml
same,SODM,[4]; 10.0 mkg/kg,3.06 ± 0.16 conv. units/ml
same,animals survived,[5]; 0.1 mkg/kg,9 out of 10
same,animals survived,"[5]; on the 5th day, control 7 out of 10",9 out of 10
same,ALT,[6]; 0.1 mkg/kg,0.75 ± 0.09 mM/h*L
same,ALT,[6]; 10.0 mkg/kg,0.66 ± 0.11 mM/h*L
same,Adrenal Glands Rel. wt.,[7]; 0.1 mkg/kg,0.019 ± 0.002%
same,Adrenal Glands Wt.,[7]; 0.1 mkg/kg,41.8 ± 5.1
same,Liver Rel. wt.,[7]; 0.1 mkg/kg,3.27 ±0.18%
same,Liver Wt.,[7]; 0.1 mkg/kg,7.062 ± 0.411 g
same,Spleen Rel. wt.,[7]; 0.1 mkg/kg,0.48 ± 0.03%
same,Spleen Wt.,[7]; 0.1 mkg/kg,1.061 ± 0.085 g
same,Thymus Rel. wt.,[7]; 0.1 mkg/kg,0.081 ± 0.007%
same,Thymus Wt.,[7]; 0.1 mkg/kg,0.173 ± 0.018 g
same,Adrenal Glands Rel. wt.,[7]; 10.0 mkg/kg,0.022 ± 0.002%
same,Adrenal Glands Wt.,[7]; 10.0 mkg/kg,48.3 ± 2.2
same,Liver Rel. wt.,[7]; 10.0 mkg/kg,3.76 ± 0.020 %
same,Liver Wt.,[7]; 10.0 mkg/kg,8.310 ± 0.426 g
same,Spleen Rel. wt.,[7]; 10.0 mkg/kg,0.56 ± 0.05%
same,Spleen Wt.,[7]; 10.0 mkg/kg,1.233 ± 0.104 g
same,Thymus Rel. wt.,[7]; 10.0 mkg/kg,0.078 ± 0.008%
same,Thymus Wt.,[7]; 10.0 mkg/kg,0.179 ± 0.032 g
same,ALT,[8]; [21],1.04 ± 0.06 mM/hr-L
same,ALT,[8]; [22],1.08 ± 0.06 mM/hr-L
same,MDA,[9]; 0.1 mkg/kg + stress,0.130 ± 0.019 OD532
same,MDA,[9]; 10 mkg/kg + stress,0.128 ± 0.020 OD532
same,MDA,"[10]; blood serum, 0.1 mkg/kg",0.169 ± 0.012 OD532
same,MDA,"[10]; blood serum, 10.0 mkg/kg",0.217 ± 0.030 OD532
same,reduced MDA content,"[10]; small dose, treatment after Indomethacin",70%
same,SODM,[11]; 0.1 mkg/kg + stress,2.20 ± 0.09 con. units/ml
same,SODM,[11]; 10 mkg/kg + stress,2.35 ± 0.11 con. units/ml
same,AP,[12]; [21],1108 ± 91 nM/s-L
same,AP,[12]; [22],1180 ± 91 nM/s-L
same,AP,[13]; 0.1 mkg/kg + stress,1100 ± 54 nM/s-L
same,AP,[13]; 10.0 mkg/kg + stress,1123 ± 55 nM/s-L
same,ALT,[14]; 0.1 mkg/kg + stress,1.55 ± 0.15 mM/hr-L
same,ALT,[14]; 10.0 mkg/kg + stress,1.78 ± 0.08 mM/hr-L
same,SODM,[15]; [18],2.50 ± 0.05 con. units/ml
same,SODM,[15]; [19],2.58 ± 0.14 con. units/ml
same,increased the activity of SODM compared to control animals,[15]; [20],1.6 times
same,Adrenal Glands Rel. wt.,[16]; [21],0.017 ± 0.001%
same,Adrenal Glands Wt.,[16]; [21],37.1 ± 1.3 mg
same,Liver Rel. wt.,[16]; [21],2.99 ± 0.060%
same,Liver Wt.,[16]; [21],6.549 ± 0.282 g
same,Spleen Rel. wt.,[16]; [21],0.433 ± 0.041%
same,Spleen Wt.,[16]; [21],0.912 ± 0.044 g
same,Thymus Rel. wt.,[16]; [21],0.124 ± 0.007 %
same,Thymus Wt.,[16]; [21],0.277 ± 0.018 g
same,Adrenal Glands Rel. wt.,[16]; [22],0.018 ± 0.001%
same,Adrenal Glands Wt.,[16]; [22],38.5 ± 1.4 mg
same,Liver Rel. wt.,[16]; [22],3.053 ± 0.065%
same,Liver Wt.,[16]; [22],6.770 ± 0.335 g
same,Spleen Rel. wt.,[16]; [22],0.434 ± 0.018%
same,Spleen Wt.,[16]; [22],0.926 ± 0.060 g
same,Thymus Rel. wt.,[16]; [22],0.133 ± 0.009%
same,Thymus Wt.,[16]; [22],0.320 ± 0.030 g
same,Adrenal Glands Rel Wt.,[17]; 0.1 mkg/kg + stress,0.017 ± 0.001 %
same,Adrenal Glands Wt.,[17]; 0.1 mkg/kg + stress,40.8 ± 1.1 mg
same,Spleen Rel Wt.,[17]; 0.1 mkg/kg + stress,0.37 ± 0.06 %
same,Spleen Wt.,[17]; 0.1 mkg/kg + stress,0.872 ± 0.066 g
same,Thymus Rel Wt.,[17]; 0.1 mkg/kg + stress,0.124 ± 0.010 %
same,Thymus Wt.,[17]; 0.1 mkg/kg + stress,0.307 ± 0.028 g
same,reducing adrenal weight compared to that of the control animals,[17]; 0.1 mkg/kg + stress,16 - 17%
same,Adrenal Glands Rel Wt.,[17]; 10.0 mkg/kg + stress,0.018 ± 0.001 %
same,Adrenal Glands Wt.,[17]; 10.0 mkg/kg + stress,45.2 ± 2.2 mg
same,Spleen Rel Wt.,[17]; 10.0 mkg/kg + stress,0.41 ± 0.03%
same,Spleen Wt.,[17]; 10.0 mkg/kg + stress,0.977 ± 0.082 g
same,Thymus Rel Wt.,[17]; 10.0 mkg/kg + stress,0.154 ± 0.008%
same,Thymus Wt.,[17]; 10.0 mkg/kg + stress,0.350 ± 0.022 g
same,lowered the relative weight of the spleen compared to that of the intact animals,[17]; small doses + stress,24%
aluminum complex of beta-D-fructofuranosyl-alpha-D-glucopyranoside octakis (hydrosulfate) [Sucralfate],AP,[1]; 200 mg/kg,1260 ± 104 nM/c*L
same,MDA,[2]; [23],0.134 ± 0.024 OD532
same,Body weight In 5 days,[3]; 200 mg/kg,86.6 ± 2.5
same,SODM,[4]; 200 mg/kg,2.66 ± 0.11 conv. units/ml
same,ALT,[6]; 200 mg/kg,0.69 ± 0.05 mM/h*L
same,Adrenal Glands Rel. wt.,[7]; 200 mg/kg,0.023± 0.002%
same,Adrenal Glands Wt.,[7]; 200 mg/kg,50.1 ± 3.2
same,Liver Rel. wt.,[7]; 200 mg/kg,3.23 ± 0.13%
same,Liver Wt.,[7]; 200 mg/kg,7.158 ± 0.330 g
same,Spleen Rel. wt.,[7]; 200 mg/kg,0.57 ± 0.04%
same,Spleen Wt.,[7]; 200 mg/kg,1.260 ± 0.083 g
same,Thymus Rel. wt.,[7]; 200 mg/kg,0.070 ± 0.005 %
same,Thymus Wt.,[7]; 200 mg/kg,0.155 ± 0.011 g
same,ALT,[8]; [23],1.05 ± 0.05 mM/hr-L
same,MDA,[9]; 200 mg/kg + stress,0.147 ± 0.007 OD532
same,MDA,[10]; 200 mg/kg,0.155 ± 0.037 OD532
same,SODM,[11]; 200 mg/kg + stress,2.32 ± 0.11 con. units/ml
same,AP,[12]; [23],931 ± 108 nM/s-L
same,AP,[13]; 200 mg/kg + stress,1113 ± 77 nM/s-L
same,ALT,[14]; 200 mg/kg + stress,1.57 ± 0.06 mM/hr-L
same,SODM,[15]; [23],2.68 ± 0.14 con. units/ml
same,Adrenal Glands Rel. wt.,[16]; [23],0.017 ± 0.001%
same,Liver Rel. wt.,[16]; [23],3.259± 0.049%
same,Liver Wt.,[16]; [23],7.702 ± 0.224 g
same,Spleen Rel. wt.,[16]; [23],0.490 ± 0.020%
same,Spleen Wt.,[16]; [23],1.070 ± 0.041 g
same,Thymus Rel. wt.,[16]; [23],0.130 ± 0.009%
same,Thymus Wt.,[16]; [23],0.306 ± 0.023 g
same,Adrenal Glands Rel Wt.,[17]; 200 mg/kg + stress,0.017 ± 0.001 %
same,Adrenal Glands Wt.,[17]; 200 mg/kg + stress,41.6 ± 2.7 mg
same,Spleen Rel Wt.,[17]; 200 mg/kg + stress,0.40 ± 0.02%
same,Spleen Wt.,[17]; 200 mg/kg + stress,0.974 ± 0.057 g
same,Thymus Rel Wt.,[17]; 200 mg/kg + stress,0.140 ± 0.007%
same,Thymus Wt.,[17]; 200 mg/kg + stress,0.327 ± 0.016 g
